Laboratory results as given in US20130217664A1, “NOVEL COMPOUNDS USEFUL FOR THE TREATMENT OF DEGENERATIVE AND INFLAMMATORY DISEASES” (priority 2012, published 2013).

How the values were obtained:
Type in all cases: biochemical
[1] = biological target: T1, human JAK1 (Homo sapiens, UniProt P23458); assay: JAK1 inhibition assay (polyGT substrate / Ulight-JAK1 peptide); settings: recombinant human JAK1 catalytic domain; polyGT or Ulight-JAK1 peptide assay
T1 construct: catalytic domain, amino acids 866-1154; catalog number PV4774; purchased Invitrogen PV4774
Method in brief: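 Two formats. PolyGT radiometric: 45 min at 30 °C, stopped with phosphoric acid, counted as cpm. Ulight-JAK1 peptide: 60 min at room temperature, stopped with Eu-anti-phosphotyrosine/EDTA, read as RFU. Percent inhibition normalised to vehicle and 10 μM staurosporine.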

[2] = biological target: T2, human JAK3 (Homo sapiens, UniProt P52333); assay: JAK3 inhibition assay; settings: recombinant human JAK3 catalytic domain; polyGT substrate
T2 construct: catalytic domain (amino acids 781-1124; catalog number PV3855); purchased Invitrogen PV3855
Method in brief: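 Radiometric kinase assay: 0.5 ng JAK3 with 2.5 μg polyGT in Tris pH 7.5/MgCl2 buffer, 1 μM ATP plus 0.25 μCi 33P-γ-ATP, 1% DMSO, 45 min at 30 °C, stopped with phosphoric acid.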

[3] = biological target: T3, human TYK2 (Homo sapiens, UniProt P29597); assay: TYK2 inhibition assay; settings: recombinant human TYK2 catalytic domain, polyGT substrate
T3 construct: catalytic domain (amino acids 871-1187; catalog number 08-147); purchased Carna Biosciences 08-147
T3 sequence (P29597 871-1187): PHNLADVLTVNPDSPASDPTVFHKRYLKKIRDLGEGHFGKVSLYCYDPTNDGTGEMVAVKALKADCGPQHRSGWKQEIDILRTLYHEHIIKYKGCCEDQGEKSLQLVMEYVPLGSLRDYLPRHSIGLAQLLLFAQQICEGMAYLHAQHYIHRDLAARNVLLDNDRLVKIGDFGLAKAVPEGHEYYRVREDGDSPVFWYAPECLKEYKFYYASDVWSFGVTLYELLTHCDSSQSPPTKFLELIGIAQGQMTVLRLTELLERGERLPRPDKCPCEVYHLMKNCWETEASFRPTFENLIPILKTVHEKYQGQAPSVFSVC
Method in brief: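 Radiometric kinase reaction run 90 min at 30 °C, stopped with phosphoric acid, washed and scintillation-counted.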

T1 sequence (P23458 866-1154): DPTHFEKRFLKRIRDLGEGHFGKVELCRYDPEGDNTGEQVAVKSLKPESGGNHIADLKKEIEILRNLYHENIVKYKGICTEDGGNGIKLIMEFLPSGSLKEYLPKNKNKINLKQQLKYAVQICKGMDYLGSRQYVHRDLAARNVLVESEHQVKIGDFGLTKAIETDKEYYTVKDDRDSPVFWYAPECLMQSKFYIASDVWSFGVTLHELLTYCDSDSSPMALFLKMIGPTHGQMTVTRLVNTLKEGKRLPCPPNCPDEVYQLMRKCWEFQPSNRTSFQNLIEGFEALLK
T2 sequence (P52333 781-1124): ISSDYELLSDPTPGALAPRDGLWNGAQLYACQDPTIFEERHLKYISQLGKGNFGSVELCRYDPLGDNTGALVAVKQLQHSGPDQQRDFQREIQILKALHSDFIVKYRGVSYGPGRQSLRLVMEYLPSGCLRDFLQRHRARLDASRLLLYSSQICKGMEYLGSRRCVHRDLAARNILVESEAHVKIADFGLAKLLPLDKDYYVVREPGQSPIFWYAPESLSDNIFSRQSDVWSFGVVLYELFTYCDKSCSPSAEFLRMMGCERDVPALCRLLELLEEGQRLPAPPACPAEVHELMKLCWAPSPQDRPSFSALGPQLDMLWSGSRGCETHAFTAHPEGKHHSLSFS

## CCNC(=O)c1ccc(N(C)c2cc3c(cn2)ncn3C)c(CC)c1 [Compound 102, N,3-diethyl-4-(methyl(1-methyl-1H-imidazo[4,5-c]pyridin-6-yl)amino)benzamide]
[1]
  IC50: 0.01 to 100 nM
[2]
  IC50: > 1000 nM
[3]
  IC50: 101 to 500 nM

## CCc1cc(CNS(=O)(=O)C(F)F)ncc1N(C)c1cc2c(cn1)ncn2C [Compound 343, N-{4-Ethyl-5-[methyl-(1-methyl-1H-imidazo[4,5-c]pyridin-6-yl)-amino]-pyridin-2-ylmethyl}-C,C-difluoro-methane sulfonamide]
[1]
  IC50: 0.01 to 100 nM
[2]
  IC50: 101 to 500 nM
[3]
  IC50: 501 to 1000 nM

## CN(c1cc2c(cn1)ncn2C)c1ccc(CNC(=O)C(F)F)cc1F [Compound 320]
[1]
  IC50: 0.01 to 100 nM
[2]
  IC50: 501 to 1000 nM
[3]
  IC50: 101 to 500 nM

## CCc1cc(C2CN(C(C)=O)C2)ncc1N(C)c1cc2c(cn1)ncn2C [Compound 332, 1-(3-{4-Ethyl-5-[methyl-(1-methyl-1H-imidazo[4,5-c]pyridin-6-yl)-amino]-pyridin-2-yl}-azetidin-1-yl)-ethanone]
[1]
  IC50: 101 to 500 nM
[2]
  IC50: > 1000 nM
[3]
  IC50: > 1000 nM

## CCc1cc(CNC(=O)C(F)F)c(F)cc1N(C)c1cc2c(cn1)ncn2C [Compound 326, N-{5-Ethyl-2-fluoro-4-[methyl-(1-methyl-M-imidazo[4,5-c]pyridin-6-yl)-amino]-benzyl}-2,2-difluoro-acetamide]
[1]
  IC50: 0.01 to 100 nM
[2]
  IC50: 101 to 500 nM
[3]
  IC50: 101 to 500 nM

## CCc1cc(C(C)O)ccc1N(C)c1cc2c(cn1)ncn2C (stereo not drawn) [Compound 101, 1-(3-Ethyl-4-(methyl(1-methyl-1H-imidazo[4,5-c]pyridin-6-yl)amino)phenyl)ethanol]
[1]
  IC50: 0.01 to 100 nM
[2]
  IC50: 101 to 500 nM
[3]
  IC50: 0.01 to 100 nM

## CCc1ccc(F)cc1N(C)c1cc2c(cn1)ncn2C [Compound 84, N-(2-ethyl-5-fluorophenyl)-N,1-dimethyl-1H-imidazo[4,5-c]pyridin-6-amine]
[1]
  IC50: 0.01 to 100 nM
[2]
  IC50: 501 to 1000 nM
[3]
  IC50: 101 to 500 nM

## COc1cc(S(=O)(=O)N2CCOCC2)ccc1N(C)c1cc2c(cn1)ncn2C [Compound 315, [2-Methoxy-4-(morpholine-4-sulfonyl)-phenyl]-methyl-(1-methyl-1H-imidazo[4,5-d]pyridin-6-yl)-amine]
[1]
  IC50: > 1000 nM
[2]
  IC50: > 1000 nM
[3]
  IC50: > 1000 nM

## Cc1ccc(OCc2ccccc2)cc1N(C)c1cc2c(cn1)ncn2C [Compound 56, N-(5-(benzyloxy)-2-methylphenyl)-N,1-dimethyl-1H-imidazo[4,5-c]pyridin-6-amine]
[1]
  IC50: 101 to 500 nM
[2]
  IC50: > 1000 nM
[3]
  IC50: > 1000 nM

## COc1cc(-c2c(C)nn(C)c2C)ncc1N(C)c1cc2c(cn1)ncn2C [Compound 312]
[1]
  IC50: > 1000 nM
[2]
  IC50: > 1000 nM
[3]
  IC50: > 1000 nM

## CCc1cc(C2CN(S(=O)(=O)C(F)F)C2)ncc1N(C)c1cc2c(cn1)ncn2C [Compound 329, {6-[1-(Difluoro-methanesulfonyl)-azetidin-3-yl]-4-ethyl-pyridin-3-yl}-methyl-(1-methyl-1H-imidazo[4,5-c]pyridin-6-yl)-amine]
[1]
  IC50: 0.01 to 100 nM
[2]
  IC50: > 1000 nM
[3]
  IC50: > 1000 nM

## Cc1ccc(OCC(C)C)cc1N(C)c1cc2c(cn1)ncn2C [Compound 63, N-(5-isobutoxy-2-methylphenyl)-N,1-dimethyl-1H-imidazo[4,5-c]pyridin-6-amine]
[1]
  IC50: 101 to 500 nM
[2]
  IC50: > 1000 nM
[3]
  IC50: > 1000 nM

## CCc1cc(-c2ccc(C#N)nc2)ccc1N(C)c1cc2c(cn1)ncn2C [Compound 114, 5-(3-ethyl-4-(methyl(1-methyl-1H-imidazo[4,5-c]pyridin-6-yl)amino)phenyl)picolino-nitrile]
[1]
  IC50: 0.01 to 100 nM
[2]
  IC50: 101 to 500 nM
[3]
  IC50: 0.01 to 100 nM

## CCc1cc(C(=O)NCC#N)ccc1N(C)c1cc2c(cn1)ncn2C [Compound 120, N-(cyanomethyl)-3-ethyl-4-(methyl(1-methyl-1H-imidazo[4,5-c]pyridin-6-yl)amino)benzamide]
[1]
  IC50: 0.01 to 100 nM
[2]
  IC50: 101 to 500 nM
[3]
  IC50: 101 to 500 nM

## CCc1cc(CNS(=O)(=O)C(F)F)cc(F)c1N(C)c1cc2c(cn1)ncn2C [Compound 324, N-{3-Ethyl-5-fluoro-4-[methyl-(1-methyl-1H-imidazo[4,5-c]pyridin-6-yl)-amino]-benzyl}-C,C-difluoro-methanesulfonamide]
[1]
  IC50: 0.01 to 100 nM
[2]
  IC50: 0.01 to 100 nM
[3]
  IC50: 0.01 to 100 nM

## CCc1cc(C2CN(C(=O)C(F)(F)F)C2)ncc1N(C)c1cc2c(cn1)ncn2C [Compound 334, 1-(3-{4-Ethyl-5-[methyl-(1-methyl-1H-imidazo[4,5-c]pyridin-6-yl)-amino]-pyridin-2-yl}-azetidin-1-yl)-2,2,2-trifluoro-ethanone]
[1]
  IC50: 0.01 to 100 nM
[2]
  IC50: 101 to 500 nM
[3]
  IC50: 501 to 1000 nM
